From patent publication US7700797B2, “Use of hydrolysis resistant organomodified silylated surfactants” (Momentive Performance Materials Inc., priority 2006, dated 2010)

How the values were obtained:
[1] = Surface tension, Kruss surface tensiometer; type: physicochemical; settings: 0.1 wt % in 0.005M NaCl water
Experimental: Surface tension was measured using a Kruss surface tensiometer, with a sand blasted platinum blade as the sensor. Solutions of the various components were prepared at 0.1 wt % in 0.005M NaCl water (deionized), as an equilibrium aid.

[2] = Spreading of 10 μL droplet on polystyrene Petri dishes; type: physicochemical; settings: 30 seconds
Experimental: Spreading was determined by applying a 10 μL droplet, of surfactant solution to polystyrene Petri dishes (Fisher Scientific) and measuring the spread diameter (mm) after 30 seconds, at a relative humidity between 50 and 70% (at 22 to 25° C.). The solution was applied with an automatic pipette to provide droplets of reproducible volume. Deionized water that was further purified with a Millipore filtration system was used to prepare the surfactant solutions.

Row | Compound | Surface Tension [1] | Spread Diameter ([2]; 0.05% surfactant) | Spread Diameter ([2]; 0.1% surfactant) | Spread Diameter ([2]; 0.3% surfactant) | Spread Diameter ([2]; 0.5% surfactant)
1 | C[Si](C)(C)CC[Si](C)(C)CCCOCCOCCOCCOCCO [Product 7] | 22.7 mN/m | 30 mm | 42 mm | 48 mm | 49 mm
2 | Octylphenolethoxylate [OPE] | 31.8 mN/m | – | 9 mm | – | 10 mm
3 | C[Si](C)(C)C[Si](C)(C)CCCOCCOCCOCCOCCOCCOCCOCCOCCOCCOCCOCCO [Product 8] | 27.7 mN/m | – | 7 mm | – | 7 mm
4 | C[Si](C)(C)CC[Si](C)(C)CCCOCCOCCOCCOCCOCCOCCOCCOCCOCCOCCOCCO [Product 9] | 26.7 mN/m | – | 7 mm | – | 7 mm
5 | C[Si](C)(C)C[Si](C)(C)CCCOCCOCCOCCOCCO [Product 6] | 22.5 mN/m | 40 mm | 45 mm | 53 mm | 47 mm
